The compounds below were run on Aspergillus niger (assay: Inhibition of CYP450-mediated tangeretin demethylation in Aspergillus niger ATCC 9142 assessed as relative activity at 0.5 mM).

Row | relative activity [%] | Compound
1 | 10 | Clc1ccc(COC(Cn2ccnc2)c2ccc(Cl)cc2Cl)c(Cl)c1 (centres undefined)
2 | 40 | CC(C)(C(=O)c1cccnc1)c1cccnc1
3 | 0 | CC1=CC(=O)c2ccccc2C1=O
4 | 0 | CCCC(C(=O)OCCN(CC)CC)(c1ccccc1)c1ccccc1

Source: ChEMBL document CHEMBL1143729, “Biotransformation of polymethoxylated flavonoids: access to their 4'-O-demethylated metabolites” (J Nat Prod, 2007)
